Data on one compound can be found in US8420621B2, “Methods of using gamma cyclodextrin to control blood glucose and insulin secretion” (Abbott Laboratories, priority 2004, dated 2013).

Series [1] relates to healthy adult subjects. The series can be described thus: Clinical study: postprandial plasma glucose response. It is filed as in vivo, human. The source says: Thirty-two healthy adult subjects received two treatments in a double-masked, randomized, crossover design. The two treatments consisted of 50 g challenges of either maltodextrin or gamma-cyclodextrin. Blood samples were collected over a three-hour period, and breath samples collected over an eight-hour period following consumption of each carbohydrate. […] This study utilized a randomized, double-masked, crossover design, with a 4-14 day washout period between treatments. Before completing the two treatment visits, each subject completed one pre-study gastrointestinal tolerance test visit. Randomization was carried out by sealed envelopes stating which pre-study treatment was to be received, as well as in which sequence the two treatment visits were to be carried out. These envelopes were prepared from randomization schedules generated at Ross Products Division of Abbott Laboratories, Two product coordinators assigned an envelope from the top of the pile to each subject in the order that they passed all screening criteria and were given subject numbers. Besides carrying out randomization, the product coordinators were responsible for study product inventory and serving the appropriate product to subjects at each visit so that other study staff could not become aware of the study product identity. […] At each of the two treatment visits, subjects received 16 fl oz of a study product containing either 50 g of maltodextrin or 50 g of gamma-cyclodextrin. All beverages were served cold in styrofoam cups with lids and straws, labeled only with the subject number, subject initials and visit number, with the intention of hiding any slight differences in appearance that could be visible to study staff or subjects. On two separate treatment visits, subjects received, in random order, one of the two study beverages. Three days prior to each treatment visit, subjects recorded their food and beverage intake in a food diary. Subjects were required to consume ≧150 g of carbohydrate each day for three days prior to each treatment. Subjects were not to engage in vigorous exercise for 24 hours before each treatment. Subjects consumed an evening low residue Ensure® meal and completed a 10-16 hour overnight fast as detailed previously. […] A breath sample was collected for measurement of breath hydrogen. […] Plasma glucose was measured using an AccuChek Advantage Blood Glucose Monitoring System® (Roche Diagnostics, Indianapolis, Ind.). […] Positive incremental area under the plasma glucose response curve for two hours after each treatment will be calculated using the method of Wolever et al, The glycemic index: methodology and clinical implications, Amer. […]

Series [2] concerns healthy adult subjects. The following applies: single 8 g doses, Koutsou et al. 1999; cited from earlier work.
Series [3] relates to healthy adult subjects. The series can be described thus: Clinical study: postprandial serum insulin response (ELISA). It is filed as in vivo, human. The text has this:
Thirty-two healthy adult subjects received two treatments in a double-masked, randomized, crossover design. The two treatments consisted of 50 g challenges of either maltodextrin or gamma-cyclodextrin. Blood samples were collected over a three-hour period, and breath samples collected over an eight-hour period following consumption of each carbohydrate. […] This study utilized a randomized, double-masked, crossover design, with a 4-14 day washout period between treatments. Before completing the two treatment visits, each subject completed one pre-study gastrointestinal tolerance test visit. Randomization was carried out by sealed envelopes stating which pre-study treatment was to be received, as well as in which sequence the two treatment visits were to be carried out. These envelopes were prepared from randomization schedules generated at Ross Products Division of Abbott Laboratories, Two product coordinators assigned an envelope from the top of the pile to each subject in the order that they passed all screening criteria and were given subject numbers. Besides carrying out randomization, the product coordinators were responsible for study product inventory and serving the appropriate product to subjects at each visit so that other study staff could not become aware of the study product identity. […] At each of the two treatment visits, subjects received 16 fl oz of a study product containing either 50 g of maltodextrin or 50 g of gamma-cyclodextrin. All beverages were served cold in styrofoam cups with lids and straws, labeled only with the subject number, subject initials and visit number, with the intention of hiding any slight differences in appearance that could be visible to study staff or subjects. […] A breath sample was collected for measurement of breath hydrogen. […] After consumption of the study beverage, the subject resumed fasting. Time 0 was designated as the time at which the subject began drinking the study beverage. […] Subjects were limited to the consumption of 8 fl oz of water during this three hour blood collection period. Approximately 10 mL of normal saline was injected into the vein after each blood draw in order to keep the line open and to replace the fluid lost from the blood collected. Insulin was analyzed using DSL-10-1600 Insulin ELISA Kits (Diagnostic Systems Laboratories, mc, Webster, Tex.). […] An acidic stopping solution is then added and the enzymatic turnover of TMB is determined by dual wavelength absorbance measurement at 450 and 620 nanometers. […] is proportional to the concentration of insulin present. […]
(In general: An ELISA detects its analyte on a solid surface through an enzyme-linked reagent.)

Turning to `OC[C@H]1O[C@@H]2O[C@H]3[C@H](O)[C@@H](O)[C@@H](O[C@H]4[C@H](O)[C@@H](O)[C@@H](O[C@H]5[C@H](O)[C@@H](O)[C@@H](O[C@H]6[C@H](O)[C@@H](O)[C@@H](O[C@H]7[C@H](O)[C@@H](O)[C@@H](O[C@H]8[C@H](O)[C@@H](O)[C@@H](O[C@H]9[C@H](O)[C@@H](O)[C@@H](O[C@H]1[C@H](O)[C@H]2O)O[C@@H]9CO)O[C@@H]8CO)O[C@@H]7CO)O[C@@H]6CO)O[C@@H]5CO)O[C@@H]4CO)O[C@@H]3CO` [Gamma-Cyclodextrin, Gamma-cyclodextrin], the “Plasma glucose area under the curve (AUC), effect versus maltodextrin” value in the series on healthy adult subjects [1] (50 g oral challenge) is listed as “significantly reduced”. Moreover, the “Adjusted peak glucose, difference between treatments” value in the series on healthy adult subjects [1] (50 g oral, crossover analysis p<0.0001) was “significant difference”. The “Positive incremental 120 min plasma glucose AUC” value with healthy adult subjects [1] (50 g oral, mean±SEM, n=31) stood at 133.2±16.5. In addition, the “Relative glycemic response compared with maltodextrin” value in the series on healthy adult subjects [1] (baseline to 120 min, 50 g oral) turned out to be 55%. Besides, the Gastrointestinal tolerance entry with healthy adult subjects [2] is given as “good tolerance”. The “Serum insulin area under the curve (AUC), effect versus maltodextrin” value in the series on healthy adult subjects [3] (50 g oral challenge) is recorded as “significantly reduced”. Further, in the series on healthy adult subjects [3] (50 g oral, mean±SEM, n=27 maltodextrin, n=31 gamma-cyclodextrin), the “Positive incremental 120 min serum insulin AUC” value was 993.4±131.6. For the same compound, the “Adjusted peak insulin value compared with maltodextrin” value with healthy adult subjects [3] (50 g oral, p=0.0003) was “significantly decreased”. The “Relative insulinemic response compared to maltodextrin” value with healthy adult subjects [3] (baseline to 120 min, 50 g oral) was 51%.
